Consider one compound from article PMC3904413, “Allosteric modulation of GABAA receptors by extracellular ATP” (Molecular Brain, 2014).

For the assay, the system named is T1, GABAARs (native, cultured hippocampal neurons).
T1 construct: gene Gabra1
As to conditions: GABA 100 μM by pressure ejection, -60 mV; allosteric potentiator; error ± 0.3 in Figure 1 legend.

Regarding `Nc1ncnc2c1ncn2[C@@H]1O[C@H](COP(=O)(O)OP(=O)(O)OP(=O)(O)O)[C@@H](O)[C@H]1O` [ATP], the EC50 was 2100 ± 200 µM.

A word on the EC50: it is the concentration that produces a half-maximal response.
